{"source": "PubChem BioAssay (NCI)", "note": "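48-hour exposure; five concentrations; linearly interpolated endpoints. GI50: concentration for 50% inhibition of growth. TGI marks complete inhibition of growth.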"}
{"test_system": "NCI/ADR-RES ovarian", "experiment": "NCI tumour cell line growth inhibition, 48 h", "units": {"TGI": "µM", "GI50": "µM"}}
{"molecule": "O=c1cccc(Cl)[nH]1", "TGI": "> 100"}
{"molecule": "COc1cc(-c2nn(-c3cccc(NC(=O)CCNc4ccc(N5CCOCC5)cc4)c3)cc2-c2ccncc2)ccc1Cl", "GI50": 4.09, "TGI": "> 100"}
{"molecule": "COc1ccc(C)cc1NC(=S)C#N", "TGI": "> 100"}
{"test_system": "SNB-19 CNS", "experiment": "NCI tumour cell line growth inhibition, 48 h", "units": {"GI50": "µM", "TGI": "µM"}}
{"molecule": "CS(=O)(=O)Nc1cc(-c2ccc3ncnc(Nc4cccc(Cl)c4)c3c2)cnc1Cl", "GI50": 0.717, "TGI": 5.05}
{"molecule": "CC1(C)OC(=O)C(=C2CCC(C(=O)Nc3cccc(C(F)(F)F)c3)N2)C(=O)O1", "note": "(configuration not stated)", "TGI": "> 100"}
{"molecule": "CN(C)CCN1CCc2c([nH]c3ccccc23)C1c1cccnc1", "note": "(configuration not stated)", "TGI": "> 100"}
{"molecule": "CCN(c1ccccc1)[C@H]1C(=O)N(c2ccc([N+](=O)[O-])cc2)[C@H]1c1ccc(OC)cc1", "TGI": "> 100"}
{"molecule": "COc1cc2cc(Oc3cccc(NC(=O)Nc4cc(C(F)(F)F)cc(C(F)(F)F)c4)c3)c(C)nc2cc1OC", "GI50": 0.654, "TGI": 2.16}
{"molecule": "CCOC(=O)[C@@H]1CSC(CC)=C(C(=O)O)N1", "GI50": "> 100", "TGI": "> 100"}
{"molecule": "COc1cc(N(C)C)c(OC)cc1C=C1C=CC=C1", "TGI": "> 100"}
{"molecule": "C[C@H]1CC[P+](C)(c2ccccc2)C1", "note": "(some centres not stated)", "TGI": "> 100"}
{"molecule": "C=C1CC[C@H]2C(C)=CC[C@H]3C(=C)C(=O)O[C@@H]3[C@@H]12", "TGI": "> 100"}
{"molecule": "COc1cc(OC)c2c(=O)c3cccc([N+](=O)[O-])c3n(C)c2c1", "TGI": "> 100"}
{"molecule": "COc1cccc(/C=N\\NC(=O)C(C)SC(C)C(=O)N/N=C/c2cccc(OC)c2)c1", "note": "(configuration not stated)", "TGI": 45.5}
{"molecule": "O=[N+]([O-])/C=C/c1ccc(Cl)cc1[N+](=O)[O-]", "GI50": 3.32, "TGI": 14}
{"molecule": "COc1ccc(-c2csc(Nc3cccc(-c4csc(C)n4)c3)n2)cc1", "GI50": 1.04, "TGI": "> 50"}
{"molecule": "COc1cc(/C=C2\\SC(N3CCCCC3)=NC2=O)ccc1OCCCCCCOc1ccc(/C=C2\\SC(N3CCCCC3)=NC2=O)cc1OC", "GI50": 9.58, "TGI": 39.7}
{"molecule": "CCCCCCCCCCCCCCCC[n+]1ccccc1", "GI50": 0.559, "TGI": 1.9}
{"molecule": "Cc1cc(C)nc(NS(=O)(=O)c2ccc(Nc3c4ccccc4nc4c(C(=O)NCCN(C)C)cccc34)cc2)n1", "TGI": 10.7}
{"molecule": "COc1cc2c3c(n(CCCNCCCNCCCN)c(=O)c2cc1OC)-c1cc2c(cc1C3=O)OCO2", "GI50": "> 100", "TGI": "> 100"}
{"molecule": "COc1ccc(-c2c(N)noc2-c2cc(OC)c3c(c2)OCCO3)cc1", "GI50": 0.0277, "TGI": "> 100"}
{"molecule": "O=C1CCC(=O)N1Sc1ccccc1", "TGI": "> 100"}
{"molecule": "CCOC(=O)c1c(NC(=O)c2ccc(Cl)cc2)sc2c(CN(C)C)c(O)ccc12", "GI50": 5.47, "TGI": 24.8}
{"molecule": "O=C(/C=C/c1ccccc1O)c1ccccc1Cl", "TGI": "> 100"}
{"molecule": "CCCCC1(C(NC(=O)c2ccccc2Cl)c2ccncc2)C(=O)N(c2ccccc2)N(c2ccccc2)C1=O", "note": "(configuration not stated)", "TGI": "> 100"}
{"molecule": "COc1ccccc1NC(=O)C1=C(C)NC(C)=C(C(=O)Nc2ccccc2OC)C1c1ccco1", "TGI": 67.6}
{"molecule": "C1=CC2CCC1CN2CCC1CNc2ccccc21", "note": "(configuration not stated)", "TGI": "> 100"}
{"molecule": "Cc1ccc(OC(=O)N2C/C(=C\\c3ccccc3)C(=O)/C(=C/c3ccccc3)C2)cc1", "TGI": "> 100"}
{"molecule": "O=C(O)CCCCC1CCSS1", "note": "(configuration not stated)", "TGI": "> 100"}
{"molecule": "O=C1C(=O)C2(CC1S(=O)(=O)c1ccccc1)c1ccccc1-c1ccccc12", "note": "(configuration not stated)", "TGI": 40.4}
{"molecule": "O=c1oc2c3ccc4ccccc4c3n(CCN3CCCCC3)c2c2ccccc12", "TGI": "> 100"}
{"molecule": "O=c1cccc(Cl)[nH]1", "TGI": "> 100"}
{"molecule": "CN1CCc2ccccc2C(C(=O)c2ccc3c(c2)OCO3)C1=O", "note": "(configuration not stated)", "TGI": "> 100"}
{"molecule": "Cc1cc(Cl)ccc1NC(=O)C1C(=O)N(c2ccc(Cl)cc2C)C(=O)/C1=N\\NC(N)=S", "note": "(configuration not stated)", "TGI": "> 100"}
{"molecule": "COc1cc(-c2nn(-c3cccc(NC(=O)CCNc4ccc(N5CCOCC5)cc4)c3)cc2-c2ccncc2)ccc1Cl", "GI50": 3.34, "TGI": "> 100"}
{"molecule": "COc1ccc(Br)c(C(=O)N2CCc3ccccc32)c1N", "TGI": "> 100"}
{"molecule": "COc1ccc(C)cc1NC(=S)C#N", "TGI": "> 100"}
{"molecule": "Cc1ccc2ccc(-c3ccccc3)c3c2c1C(=O)c1ccccc1C3=O", "TGI": "> 100"}
{"molecule": "OCC(O)C(O)C(O)c1nn(-c2ccc(F)cc2)c2nc3cc(Cl)c(Cl)cc3nc12", "note": "(configuration not stated)", "TGI": 38}
{"molecule": "COc1ccc(C2Cc3cc(OC)c(OC)c(OC)c3C2)cc1", "note": "(configuration not stated)", "TGI": "> 100"}
{"test_system": "NCI-H522 lung", "experiment": "NCI tumour cell line growth inhibition, 48 h", "units": {"GI50": "µM", "TGI": "µM"}}
{"molecule": "CS(=O)(=O)Nc1cc(-c2ccc3ncnc(Nc4cccc(Cl)c4)c3c2)cnc1Cl", "GI50": 0.391, "TGI": 6.86}
{"molecule": "CC1(C)OC(=O)C(=C2CCC(C(=O)Nc3cccc(C(F)(F)F)c3)N2)C(=O)O1", "note": "(configuration not stated)", "TGI": "> 100"}
{"molecule": "CN(C)CCN1CCc2c([nH]c3ccccc23)C1c1cccnc1", "note": "(configuration not stated)", "TGI": "> 100"}
{"molecule": "CN(C)c1ccc(C(O)C2=CC(=O)c3ccccc3C2=O)cc1", "note": "(configuration not stated)", "GI50": 2.82, "TGI": 9.2}
{"molecule": "CCN(c1ccccc1)[C@H]1C(=O)N(c2ccc([N+](=O)[O-])cc2)[C@H]1c1ccc(OC)cc1", "TGI": "> 100"}
{"molecule": "COc1ccc(/C=C\\c2cc(OC)c(OC)c(OC)c2)cc1", "TGI": 0.00151}
{"molecule": "COc1cc2cc(Oc3cccc(NC(=O)Nc4cc(C(F)(F)F)cc(C(F)(F)F)c4)c3)c(C)nc2cc1OC", "GI50": 1.25, "TGI": 2.95}
{"molecule": "CCOC(=O)[C@@H]1CSC(CC)=C(C(=O)O)N1", "GI50": "> 100", "TGI": "> 100"}
{"molecule": "C[C@H]1CC[P+](C)(c2ccccc2)C1", "note": "(some centres not stated)", "TGI": "> 100"}
{"molecule": "C=C1CC[C@H]2C(C)=CC[C@H]3C(=C)C(=O)O[C@@H]3[C@@H]12", "TGI": "> 100"}
{"molecule": "COc1cc(OC)c2c(=O)c3cccc([N+](=O)[O-])c3n(C)c2c1", "TGI": "> 100"}
{"molecule": "COc1cccc(/C=N\\NC(=O)C(C)SC(C)C(=O)N/N=C/c2cccc(OC)c2)c1", "note": "(configuration not stated)", "TGI": 59.1}
{"molecule": "O=[N+]([O-])/C=C/c1ccc(Cl)cc1[N+](=O)[O-]", "GI50": 1.5, "TGI": 3.3}
{"molecule": "COc1ccc(-c2csc(Nc3cccc(-c4csc(C)n4)c3)n2)cc1", "GI50": 1.23, "TGI": "> 16.4"}
{"molecule": "COc1cc(/C=C2\\SC(N3CCCCC3)=NC2=O)ccc1OCCCCCCOc1ccc(/C=C2\\SC(N3CCCCC3)=NC2=O)cc1OC", "GI50": 3.18, "TGI": 22}
{"molecule": "CCCCCCCCCCCCCCCC[n+]1ccccc1", "GI50": 0.226, "TGI": 0.947}
{"molecule": "Cc1cc(C)nc(NS(=O)(=O)c2ccc(Nc3c4ccccc4nc4c(C(=O)NCCN(C)C)cccc34)cc2)n1", "TGI": 4.28}
{"molecule": "COc1cc2c3c(n(CCCNCCCNCCCN)c(=O)c2cc1OC)-c1cc2c(cc1C3=O)OCO2", "GI50": "> 100", "TGI": "> 100"}
{"molecule": "O=C1CCC(=O)N1Sc1ccccc1", "TGI": "> 100"}
{"molecule": "CCOC(=O)c1c(NC(=O)c2ccc(Cl)cc2)sc2c(CN(C)C)c(O)ccc12", "GI50": 21, "TGI": "> 100"}
{"molecule": "O=C(/C=C/c1ccccc1O)c1ccccc1Cl", "TGI": 80.4}
{"molecule": "CCCCC1(C(NC(=O)c2ccccc2Cl)c2ccncc2)C(=O)N(c2ccccc2)N(c2ccccc2)C1=O", "note": "(configuration not stated)", "TGI": "> 100"}
{"molecule": "COc1ccccc1NC(=O)C1=C(C)NC(C)=C(C(=O)Nc2ccccc2OC)C1c1ccco1", "TGI": 8.6}
{"molecule": "C1=CC2CCC1CN2CCC1CNc2ccccc21", "note": "(configuration not stated)", "TGI": "> 100"}
{"molecule": "Cc1ccc(OC(=O)N2C/C(=C\\c3ccccc3)C(=O)/C(=C/c3ccccc3)C2)cc1", "TGI": 33.8}
{"molecule": "O=C(O)CCCCC1CCSS1", "note": "(configuration not stated)", "TGI": "> 100"}
{"molecule": "O=C1C(=O)C2(CC1S(=O)(=O)c1ccccc1)c1ccccc1-c1ccccc12", "note": "(configuration not stated)", "TGI": 43.1}
{"molecule": "O=c1oc2c3ccc4ccccc4c3n(CCN3CCCCC3)c2c2ccccc12", "TGI": "> 100"}
{"molecule": "O=c1cccc(Cl)[nH]1", "TGI": "> 100"}
{"molecule": "Cc1ccc(S(=O)C(C)C(Cl)c2ccccc2)cc1", "note": "(configuration not stated)", "TGI": "> 100"}
{"molecule": "CN1CCc2ccccc2C(C(=O)c2ccc3c(c2)OCO3)C1=O", "note": "(configuration not stated)", "TGI": "> 100"}
{"molecule": "Cc1cc(Cl)ccc1NC(=O)C1C(=O)N(c2ccc(Cl)cc2C)C(=O)/C1=N\\NC(N)=S", "note": "(configuration not stated)", "TGI": 34.4}
{"molecule": "COc1cc(-c2nn(-c3cccc(NC(=O)CCNc4ccc(N5CCOCC5)cc4)c3)cc2-c2ccncc2)ccc1Cl", "GI50": 2.52, "TGI": 9.82}
{"molecule": "COc1ccc(Br)c(C(=O)N2CCc3ccccc32)c1N", "TGI": 36.8}
{"molecule": "Cc1ccc2ccc(-c3ccccc3)c3c2c1C(=O)c1ccccc1C3=O", "TGI": "> 100"}
{"molecule": "OCC(O)C(O)C(O)c1nn(-c2ccc(F)cc2)c2nc3cc(Cl)c(Cl)cc3nc12", "note": "(configuration not stated)", "TGI": 31.4}
{"test_system": "OVCAR-4 ovarian", "experiment": "NCI tumour cell line growth inhibition, 48 h", "units": {"GI50": "µM", "TGI": "µM"}}
{"molecule": "CS(=O)(=O)Nc1cc(-c2ccc3ncnc(Nc4cccc(Cl)c4)c3c2)cnc1Cl", "GI50": 0.828, "TGI": 9.22}
{"molecule": "CC1(C)OC(=O)C(=C2CCC(C(=O)Nc3cccc(C(F)(F)F)c3)N2)C(=O)O1", "note": "(configuration not stated)", "TGI": "> 100"}
{"molecule": "CN(C)CCN1CCc2c([nH]c3ccccc23)C1c1cccnc1", "note": "(configuration not stated)", "TGI": "> 100"}
{"molecule": "CN(C)c1ccc(C(O)C2=CC(=O)c3ccccc3C2=O)cc1", "note": "(configuration not stated)", "GI50": 4.51, "TGI": "> 100"}
{"molecule": "COc1cc2cc(Oc3cccc(NC(=O)Nc4cc(C(F)(F)F)cc(C(F)(F)F)c4)c3)c(C)nc2cc1OC", "GI50": 1.22, "TGI": 4.44}
